Earlier results in patent publication US20250278807A1, “MODERN MONETARY THEORY AND TRANSLATIONAL SCIENTIFIC RESEARCH” (priority 2025, published 2025).
Where two headings read alike, the source gives them in different places.

How the values were obtained:
[1] = test system: wide variety of cancer cells; settings: in vivo
[2] = test system: wide variety of cancer cells; settings: in vitro
[3] = in vivo
[4] = test system: other malignant cell cultures; settings: in vitro
[5] = in vivo; remark: listed apart in the source
[6] = biological target: T1, beta amyloid peptide (1-40) aggregates (Homo sapiens, UniProt P05067); settings: in vitro, aggregates formed with calcium ions; loss of Thioflavin T fluorescence
T1 construct: beta amyloid peptide (1-40)
T1 sequence (P05067 672-711 limits assumed): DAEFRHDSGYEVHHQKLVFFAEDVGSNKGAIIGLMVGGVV

thoracic atheroma = settings: administered intraperitoneally, cholesterol-fed rabbits
[7] = test system: chronic lumbar radicular pain; settings: phase II trials, versus placebo

In the case of `O=CC[C@@H](O)[C@H](O)[C@H](O)CO` [2DG, 2-Deoxy-D-Glucose], the “inhibition of growth of cancer cells” value [1] is given as “inhibit growth” and the “inhibition of growth of cancer cells” value [2] is given as “inhibit growth”.
In the case of `O=[14CH][C@H](O)[C@H](O)[C@H](O)CO` [D-ribose-1-C^14], the excretion after infusion [3] is listed as “excreted unchanged in the urine”.
In the case of `C[C@@H](O)C(=O)O[C@H](C)C(=O)O` [DLAD, D-Lactic Acid Dimer], the “inhibition of growth of melanoma tumors” value (melanoma tumors; in vivo) is given as “inhibit growth”, the tumoricidal activity (melanoma tumors; intralesional application) is given as “dose response tumoricidal activity” and the “inhibition of growth of cancer cells” value [1] is given as “inhibit growth”. The “inhibition of growth of cancer cells” value [2] was “inhibit growth”, the “inhibition of growth of other malignant cell cultures” value [4] was “inhibit growth” and the “inhibition of melanoma cell proliferation” value (melanoma cell; compared to L-lactic acid dimer (P<0.0001)) was “conclusively shown”. The “efficacy at pH 7” value (melanoma cell; pH 7) was “lost efficacy”.
In the case of `NCCCC[C@H](N)C(=O)O` [L-lysine], the “effect on absorption of glucose” value (blood glucose; concomitant administration of glucose with L-lysine) is given as “decrease the absorption of glucose”, the oral bioavailability (blood glucose; in vivo, po) is given as “well established” and the “effect on blood glucose” value (blood glucose; oral administration) is given as “lower blood glucose”.
In the case of `CCN(CC)CCOC(=O)c1ccc(N)cc1` [Procaine], the oral bioavailability [5] is listed as “orally bioavailable”.
In the case of `O=C(O)CC(O)(CC(=O)O)C(=O)O` [citrate], the “dissolution of beta amyloid aggregates” value [6] is given as “can be dissolved”.
For `O=C([O-])CC(O)(CC(=O)[O-])C(=O)[O-].[Na+].[Na+].[Na+]` [sodium citrate], the “effect on thoracic atheroma” value (thoracic atheroma) is given as “decreased thoracic atheroma”.
In the case of `COc1c([C@H]2[C@H](C(=O)Nc3ccnc(C(N)=O)c3)O[C@@](C)(C(F)(F)F)[C@H]2C)ccc(F)c1F` [suzetrigine], the “efficacy in chronic lumbar radicular pain” value [7] is listed as “no better efficacy than placebo”.
In the case of Choline citrate, the “effect on thoracic atheroma” value (thoracic atheroma) is given as “decreased thoracic atheroma”.
